Results as given in ChEMBL document CHEMBL1201862, “PubChem BioAssay data set” (2004).
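Following 48 hours of exposure in 96-well plates, responses at five concentrations were used to interpolate endpoints linearly. At the GI50, growth is halved.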 The source made the active and inactive calls. Rule as the data show it: active = GI50 up to about 1.1 µM and inactive = higher.

How the values were obtained:
Test in all cases: NCI-60 cell line screen, 48 h
A549 = test system: A549
ACHN = test system: ACHN
CAKI-1 = test system: CAKI-1
COLO 205 = test system: COLO 205
DLD-1 = test system: DLD-1
DMS-114 = test system: DMS-114
DMS-273 = test system: DMS-273
EKVX = test system: EKVX
HCC 2998 = test system: HCC 2998
HCT-116 = test system: HCT-116
HCT-15 = test system: HCT-15
HOP-18 = test system: HOP-18
HOP-62 = test system: HOP-62
HOP-92 = test system: HOP-92
IGROV-1 = test system: IGROV-1
K562 = test system: K562
KM-20L2 = test system: KM-20L2
KM12 = test system: KM12
LOX IMVI = test system: LOX IMVI
LXFL 529 = test system: LXFL 529
M19-MEL = test system: M19-MEL
MOLT-4 = test system: MOLT-4
Malme-3M = test system: Malme-3M
NCI-H226 = test system: NCI-H226
NCI-H23 = test system: NCI-H23
NCI-H522 = test system: NCI-H522
OVCAR-3 = test system: OVCAR-3
OVCAR-4 = test system: OVCAR-4
OVCAR-5 = test system: OVCAR-5
OVCAR-8 = test system: OVCAR-8
RPMI-8226 = test system: RPMI-8226
RXF 393 = test system: RXF 393
RXF 631 = test system: RXF 631
SF-268 = test system: SF-268
SF-295 = test system: SF-295
SF-539 = test system: SF-539
SK-MEL-28 = test system: SK-MEL-28
SK-MEL-2 = test system: SK-MEL-2
SK-MEL-5 = test system: SK-MEL-5
SK-OV-3 = test system: SK-OV-3
SN12C = test system: SN12C
SNB-19 = test system: SNB-19
SNB-78 = test system: SNB-78
SR = test system: SR
SW-620 = test system: SW-620
TK-10 = test system: TK-10
U-251 = test system: U-251
UACC-62 = test system: UACC-62
UO-31 = test system: UO-31
XF498 = test system: XF498
786-0 = test system: 786-0
A498 = test system: A498
CCRF-CEM = test system: CCRF-CEM
HL-60 = test system: HL-60
HT-29 = test system: HT-29
M14 = test system: M14
SNB-75 = test system: SNB-75
UACC-257 = test system: UACC-257
NCI-H460 = test system: NCI-H460

COc1cccc(NC(=O)CC(=O)NNCC(=O)Nc2nnc(-c3ccc(N(CCC#N)S(=O)(=O)c4ccccc4)cc3)s2)c1
GI50 (A549): 67.5 µM (inactive)
GI50 (ACHN): 34.8 µM (inactive)
GI50 (CAKI-1): > 100 µM (inactive)
GI50 (COLO 205): 53 µM (inactive)
GI50 (DLD-1): 45.1 µM (inactive)
GI50 (DMS-114): 41.6 µM (inactive)
GI50 (DMS-273): 72.1 µM (inactive)
GI50 (EKVX): 41 µM (inactive)
GI50 (HCC 2998): > 100 µM (inactive)
GI50 (HCT-116): 63.7 µM (inactive)
GI50 (HCT-15): > 100 µM
GI50 (HOP-18): > 100 µM (inactive)
GI50 (HOP-62): 88.7 µM (inactive)
GI50 (HOP-92): 49.2 µM (inactive)
GI50 (IGROV-1): 96.4 µM (inactive)
GI50 (K562): 37.6 µM (inactive)
GI50 (KM-20L2): > 100 µM (inactive)
GI50 (KM12): 63.5 µM (inactive)
GI50 (LOX IMVI): 75.7 µM (inactive)
GI50 (LXFL 529): 66.4 µM (inactive)
GI50 (M19-MEL): 44.1 µM (inactive)
GI50 (MOLT-4): 35.7 µM (inactive)
GI50 (Malme-3M): 40.7 µM (inactive)
GI50 (NCI-H226): > 100 µM (inactive)
GI50 (NCI-H23): 48.3 µM (inactive)
GI50 (NCI-H522): 39 µM (inactive)
GI50 (OVCAR-3): 78.3 µM (inactive)
GI50 (OVCAR-4): 65.8 µM (inactive)
GI50 (OVCAR-5): 78.3 µM (inactive)
GI50 (OVCAR-8): > 100 µM (inactive)
GI50 (RPMI-8226): 66.4 µM (inactive)
GI50 (RXF 393): 56.4 µM (inactive)
GI50 (RXF 631): > 100 µM (inactive)
GI50 (SF-268): 82.4 µM (inactive)
GI50 (SF-295): 87.1 µM (inactive)
GI50 (SF-539): > 100 µM (inactive)
GI50 (SK-MEL-28): 55.7 µM (inactive)
GI50 (SK-MEL-2): > 100 µM (inactive)
GI50 (SK-MEL-5): 37.6 µM (inactive)
GI50 (SK-OV-3): 30.5 µM (inactive)
GI50 (SN12C): 89.7 µM (inactive)
GI50 (SNB-19): > 100 µM (inactive)
GI50 (SNB-78): > 100 µM (inactive)
GI50 (SR): 28.8 µM (inactive)
GI50 (SW-620): > 100 µM (inactive)
GI50 (TK-10): > 100 µM (inactive)
GI50 (U-251): 76.9 µM (inactive)
GI50 (UACC-62): 30.7 µM (inactive)
GI50 (UO-31): 47.4 µM (inactive)
GI50 (XF498): 73.8 µM (inactive)

O=C1C2=C(c3ccccc31)C(c1ccccc1Cl)N1C(=O)CCSC1=N2 (centres undefined)
GI50 (786-0): > 100 µM (inactive)
GI50 (A498): > 100 µM (inactive)
GI50 (A549): > 100 µM (inactive)
GI50 (ACHN): > 100 µM (inactive)
GI50 (CAKI-1): > 100 µM (inactive)
GI50 (CCRF-CEM): > 100 µM (inactive)
GI50 (COLO 205): > 100 µM (inactive)
GI50 (DLD-1): > 100 µM (inactive)
GI50 (DMS-114): > 100 µM (inactive)
GI50 (DMS-273): > 100 µM (inactive)
GI50 (EKVX): > 100 µM (inactive)
GI50 (HCC 2998): > 100 µM (inactive)
GI50 (HCT-116): > 100 µM (inactive)
GI50 (HCT-15): > 100 µM
GI50 (HL-60): > 100 µM (inactive)
GI50 (HOP-62): > 100 µM (inactive)
GI50 (HOP-92): 30.1 µM (inactive)
GI50 (HT-29): > 100 µM (inactive)
GI50 (IGROV-1): > 100 µM (inactive)
GI50 (K562): > 100 µM (inactive)
GI50 (KM-20L2): > 100 µM (inactive)
GI50 (KM12): > 100 µM (inactive)
GI50 (M14): > 100 µM (inactive)
GI50 (M19-MEL): > 100 µM (inactive)
GI50 (MOLT-4): 84.7 µM (inactive)
GI50 (Malme-3M): > 100 µM (inactive)
GI50 (NCI-H226): > 100 µM (inactive)
GI50 (NCI-H23): 76 µM (inactive)
GI50 (NCI-H522): 35.7 µM (inactive)
GI50 (OVCAR-3): > 100 µM (inactive)
GI50 (OVCAR-4): 45.4 µM (inactive)
GI50 (OVCAR-5): > 100 µM (inactive)
GI50 (OVCAR-8): > 100 µM (inactive)
GI50 (RPMI-8226): 81.5 µM (inactive)
GI50 (RXF 631): > 100 µM (inactive)
GI50 (SF-268): > 100 µM (inactive)
GI50 (SF-295): > 100 µM (inactive)
GI50 (SF-539): > 100 µM (inactive)
GI50 (SK-MEL-28): > 100 µM (inactive)
GI50 (SK-MEL-2): > 100 µM (inactive)
GI50 (SK-MEL-5): > 100 µM (inactive)
GI50 (SK-OV-3): > 100 µM (inactive)
GI50 (SN12C): 89.9 µM (inactive)
GI50 (SNB-19): > 100 µM (inactive)
GI50 (SNB-75): 55.2 µM (inactive)
GI50 (SW-620): > 100 µM (inactive)
GI50 (TK-10): > 100 µM (inactive)
GI50 (U-251): > 100 µM (inactive)
GI50 (UACC-257): > 100 µM (inactive)
GI50 (UACC-62): 76.7 µM (inactive)
GI50 (UO-31): 58.1 µM (inactive)
GI50 (XF498): 79.3 µM (inactive)

CCCCCCCCCCCCCCCC(=O)OCC1OC(N2C(=O)/C(=N\NC(N)=S)c3ccc([N+](=O)[O-])cc32)C(OC(C)=O)C1OC(C)=O (centres undefined)
GI50 (786-0): > 100 µM (inactive)
GI50 (A549): 56.2 µM (inactive)
GI50 (ACHN): 48.5 µM (inactive)
GI50 (CAKI-1): > 100 µM (inactive)
GI50 (CCRF-CEM): > 100 µM (inactive)
GI50 (COLO 205): 37.1 µM (inactive)
GI50 (DLD-1): 77.1 µM (inactive)
GI50 (DMS-114): 66.7 µM (inactive)
GI50 (DMS-273): > 100 µM (inactive)
GI50 (EKVX): 39.4 µM (inactive)
GI50 (HCC 2998): > 100 µM (inactive)
GI50 (HCT-116): 29 µM (inactive)
GI50 (HCT-15): 86.1 µM
GI50 (HL-60): > 100 µM (inactive)
GI50 (HOP-18): > 100 µM (inactive)
GI50 (HOP-62): > 100 µM (inactive)
GI50 (HOP-92): 93.5 µM (inactive)
GI50 (HT-29): > 100 µM (inactive)
GI50 (IGROV-1): > 100 µM (inactive)
GI50 (K562): > 100 µM (inactive)
GI50 (KM-20L2): 57.3 µM (inactive)
GI50 (KM12): 74.1 µM (inactive)
GI50 (LOX IMVI): 99.3 µM (inactive)
GI50 (LXFL 529): 38.7 µM (inactive)
GI50 (M14): 62.2 µM (inactive)
GI50 (M19-MEL): > 100 µM (inactive)
GI50 (MOLT-4): > 100 µM (inactive)
GI50 (Malme-3M): > 100 µM (inactive)
GI50 (NCI-H226): > 100 µM (inactive)
GI50 (NCI-H23): > 100 µM (inactive)
GI50 (NCI-H460): > 100 µM (inactive)
GI50 (NCI-H522): 36.6 µM (inactive)
GI50 (OVCAR-3): 60.3 µM (inactive)
GI50 (OVCAR-4): > 100 µM (inactive)
GI50 (OVCAR-5): > 100 µM (inactive)
GI50 (OVCAR-8): 52.1 µM (inactive)
GI50 (RPMI-8226): > 100 µM (inactive)
GI50 (RXF 393): > 100 µM (inactive)
GI50 (RXF 631): > 100 µM (inactive)
GI50 (SF-268): > 100 µM (inactive)
GI50 (SF-295): > 100 µM (inactive)
GI50 (SF-539): > 100 µM (inactive)
GI50 (SK-MEL-28): > 100 µM (inactive)
GI50 (SK-MEL-2): > 100 µM (inactive)
GI50 (SK-MEL-5): 97.5 µM (inactive)
GI50 (SK-OV-3): 48.4 µM (inactive)
GI50 (SN12C): > 100 µM (inactive)
GI50 (SNB-19): > 100 µM (inactive)
GI50 (SNB-75): > 100 µM (inactive)
GI50 (SNB-78): > 100 µM (inactive)
GI50 (SR): > 100 µM (inactive)
GI50 (SW-620): > 100 µM (inactive)
GI50 (TK-10): > 100 µM (inactive)
GI50 (U-251): 78 µM (inactive)
GI50 (UACC-257): > 100 µM (inactive)
GI50 (UACC-62): 69.7 µM (inactive)
GI50 (XF498): > 100 µM (inactive)
